This note sets out measurements from patent US10894794B1, “Substituted [1,2,4]triazolo[4,3-a]pyrazines as antidiabetics” (King Abdulaziz University, priority 2019, dated 2021).

In this assay the test system is 14 h overnight-fasted diabetic mice. The experiment in a line: Blood glucose after introduction of food for one hour (meal tolerance test). Format: in vivo. The settings on record: for antihyperglycemic activity after introduction of food (blood glucose rise and total AUC(0-180), in words): 50 mg/kg, 3 h before introduction of food; for Area under the curve AUC(0-180) after meal feeding: Day 1, 50 mg/kg oral, 3 hr pretreated. On the procedure:
The rational of this test was to determine the ability of the tested compounds to modulate glucose utilization after the introduction of food, after 3 h of drug administration to 14 h overnight-fasted mice (feeding with normal diet was done for 1 hr only, then food was removed during the remaining time of the test). This model is analogous to oral glucose tolerance tests (OGTT) used clinically to evaluate glycemic control, except that the meal was composed of fats, proteins and carbohydrates, and thus was a more realistic representation of the nutritional makeup of normal food. The main purpose is that during meal digestion, food contents e.g. carbohydrates, proteins and fats, were reported to cause an increase in the production of the GLP-I from the L-cells in ileum and colon. The produced GLP-I goes into circulation directly and affects insulin secretion from pancreatic β-cells. Both the GPL-I and insulin levels are expected to be high especially in the presence of a […] inhibitor.
Animals were Distributed Between 17 Groups (n=6) as Follows: • a. Group 1. Animals of this group were overnight-fasted normoglycemic mice and received the vehicle (1% CMC-Na) at a volume of 10 ml/kg/day for 4 consecutive days. • b. Group 2: overnight-fasted diabetic mice received the vehicle (1% CMC-Na) at a volume of 10 ml/kg/day for 4 consecutive days and served as a negative control. • c. Group 3: overnight fasted diabetic mice received sitagliptin at a dose of 50 mg/kg/day for 4 consecutive days in 1% CMC (in a volume of 10 ml/kg) and served as positive control. • d. Groups 4-19: Animals of these groups were overnight-fasted diabetic mice and received the tested compounds 128, 129, 130, 131,140, 142 at a dose of 50 mg/kg/day for 4 consecutive days in 1% CMC (volume of 10 ml/kg). Food was introduced for one hour only then food was removed immediately. Blood glucose levels were determined just before and 3 h after drug administration and then at 0, 60, 120 and 180 min after meal. Blood Sampling and Blood Glucose Determination
Blood samples were collected from the tail vein and the blood glucose level was determined. Curves of blood glucose levels (mg/dL) versus the time intervals (min) were constructed and the area under the curves (AUCs) were calculated by the method of calculation embedded in GraphPad Prism® v. 5.0 (GraphPad Software, San Diego, Calif., USA). AUCs of the curves of the different groups were compared and tested for significance against control groups.

As for `O=C(CN1CCn2c(nnc2C(F)(F)F)C1)NC1CCCCC1` [GLP-140], the “antihyperglycemic activity after introduction of food (blood glucose rise and total AUC(0-180), in words)” value (“antihyperglycemic activity” below) is “significant antihyperglycemic activity”; the “Area under the curve AUC(0-180) after meal feeding” value is 72873 ± mg · dL^−1 · min.

Turning to `C[C@H](NC(=O)c1cccc(Cl)c1)C(=O)N1CCn2c(nnc2C(F)(F)F)C1` [GLP-130], the “antihyperglycemic activity” value was “significant antihyperglycemic activity”; the “Area under the curve AUC(0-180) after meal feeding” value is 50478 ± mg · dL^−1 · min.

Turning to `N#Cc1cccc(NC(=O)CN2CCn3c(nnc3C(F)(F)F)C2)c1` [GLP-142], the “antihyperglycemic activity” value is “significant antihyperglycemic activity”.
